Assay results from US12491172B2, “Treatment of diabetes” (priority 2019, dated 2025).

Legend:
Assay type in all cases: cell-based, mouse
[1] = test system: isolated pancreatic islets; assay: Cellular hypoxia in isolated islets (pimonidazole adducts)
Protocol: For experiments using the hypoxic marker pimonidazole, islets were cultured overnight in RPMI 1640 with 11 mM glucose and fasted for 1 hour in RPMI 1640 with 5.5 mM glucose. Subsequently islets were moved to medium containing 5.5 mM, 11 mM or 22 mM glucose, either with or without the glucokinase activator 10 μM of the glucokinase activator GKA50 (Sigma), 50 μM nifedipine (Sigma) or 100 μM diaxozide (Sigma) as indicated (FIGS. 1A and B). Islets were cultured during 8 hours before lysis. During the last 2 hours pimonidazole (Hypoxyprobe, HPI, Inc) was added to the medium. The hypoxic sample were cultured under 8% O2 during the last 2 hours before the lysis.
Islets were sonicated in RIPA buffer (50 mM Tris-HCl pH7.4, 150 mM NaCl, 1% NP-40, 0.5% Na deoxycholate, 0.1% SDS, 1 mM EDTA, protease inhibitor mix (Complete-Mini, Roche), 0.5 mM phenylmethylsulfonyl fluoride (PMSF) and 0.5 mM dithiothreitol). Lysates were cleared by centrifugation for 30 min at 14.000 r.p.m., and proteins were separated by SDS-PAGE and blotted onto nitrocellulose membranes. […]

HIF-1α = HIF-1α and GLUT1 protein levels in isolated pancreatic islets (immunoblotting); conditions: islets treated with GKA50 alone, 20 hours
[2] = test system: isolated pancreatic islets; assay: Measurements of cytoplasmic free Ca2+-concentration in islets
[3] = test system: isolated pancreatic islets; assay: Static batch incubation (insulin secretion) of isolated islets
HIF-1α target genes = assay: Gene expression of HIF-1α target genes in isolated islets (RT-qPCR)
[4] = islets treated with GKA50 alone, 20 hours

Row | Compound | levels of pimonidazole adducts ([1]; islets treated with GKA50 in the presence of 50 μM nifedipine or 100 μM diaxozide) | HIF-1α stabilization and GLUT1 protein levels (HIF-1α) | formation of pimonidazole adducts (cellular hypoxia) ([1]; isolated islets, 8 hours, 10 μM GKA50) | speed of [Ca2+]i response to glucose ([2]; 20 μM GKA50 with or without 50 μM PX-478) | basal [Ca2+]i oscillations ([2]; 3 mM glucose, after 20 hours 20 μM GKA50 with or without 50 μM PX-478 and 2 hours fasting) | basal insulin secretion ([3]; 3.3 mM glucose, after 20 hours treatment and 2 hours fasting) | insulin release at high glucose concentration ([3]; 16.7 mM glucose, after 20 hours treatment) | secretory index ([3]; GKA50-treated islets in absence (1.2) or presence (3.4) of the HIF-1α inhibitor) | insulin content ([3]; islets treated with GKA50 with or without PX-478) | Gck mRNA level (HIF-1α target genes; islets treated with GKA50, compared to untreated islets) | gene expression of Glut1, Igfbp3, Hk2, Pgk1 and Pdk1 (HIF-1α target genes; [4]) | mRNA expression of Ldha and Bnip3 (HIF-1α target genes; [4])
1 | CC1=Nc2ccc(Cl)cc2S(=O)(=O)N1 [diaxozide] | no decrease in levels of pimonidazole adducts |  |  |  |  |  |  |  |  |  |  | 
2 | COC[C@H](C)Oc1cc(O[C@@H](C)Cc2ccccc2)cc(C(=O)Nc2ccc(C(=O)O)cn2)c1 [GKA50] |  | led to HIF-1α stabilization and increased GLUT1 protein levels | increase in the formation of pimonidazole adducts | faster response to glucose | displayed [Ca^2+]i oscillations already under basal low glucose concentration | dose response-dependent increase in basal insulin secretion | without impacting on insulin release at high glucose concentration | 1.2 fold | no impact on insulin content | reduced | Induction | not induced
